Test results from ChEMBL document CHEMBL3877284, “Discovery of novel dengue virus NS5 methyltransferase non-nucleoside inhibitors by fragment-based drug design” (Eur J Med Chem, 2017).
Calls of active or inactive are those of the source. The rule behind the calls is not given here.

What was measured:
[1] = Inhibition of Dengue virus 3 NS5 2'-O-MTase activity assessed as reduction in [3H]AdoMet transfer to 7MeGpppAC4 capped RNA substrate after 30 mins by microbeta liquid scintillation counting method; design: species or system dengue virus type 3
[2] = Inhibition of Dengue virus 3 NS5 N7-MTase activity assessed as reduction in [3H]AdoMet transfer to GpppA2'OMe-RNA74 substrate after 30 mins by microbeta liquid scintillation counting method; design: species or system dengue virus type 3
[3] = Inhibition of West Nile virus Uganda strain B956 NS5 2'-O-MTase activity assessed as reduction in [3H]AdoMet transfer to 7MeGpppAC4 capped RNA substrate after 30 mins by microbeta liquid scintillation counting method
[4] = Cytotoxicity against African green monkey Vero E6 cells up to 100 uM; assay type: toxicity, cell-based; details: chlorocebus sabaeus
[5] = system: dengue virus type 3; experiment: Binding affinity to Dengue virus 3 NS5 methyl transferase domain by thermal shift assay

| Compound | IC50 [1] [µM] | IC50 [2] [µM] | IC50 [3] [µM] | Activity [5] | Activity [4] |
| --- | --- | --- | --- | --- | --- |
| Nc1cc(Cl)ccc1NC(=O)Nc1ccc(S(=O)(=O)Oc2ccc(C(=O)O)cc2)cc1 | 368 | > 1000 | 190 | – | – |
| Cc1cc(N)c(N)cc1Cl | 9300 | – | – | Active | – |
| Cc1ccc(C(=O)O)c(N)c1 | 2800 | – | – | Active | – |
| Nc1ccc(C(F)(F)F)cc1N | 9000 | – | – | Active | – |
| Nc1cc(Cl)ccc1NC(=O)Nc1cccc(S(=O)(=O)Oc2ccc(C(=O)O)cc2)c1 | 369 | > 1000 | 120 | – | – |

The next lines start with results.

| IC50 [1] [µM] | IC50 [2] [µM] | IC50 [3] [µM] | Activity [5] | Compound | Activity [4] |
| --- | --- | --- | --- | --- | --- |
| 91 | 1120 | 51 | – | Nc1cc(C(F)(F)F)ccc1NC(=O)Nc1cccc(S(=O)(=O)Nc2ccc(C(=O)O)cc2)c1 | Non-Toxic |
| 452 | > 1000 | 182 | – | Nc1cc(Cl)ccc1NC(=O)Nc1cccc(S(=O)(=O)Nc2ccc(C(=O)O)cc2)c1 | – |
| 435 | > 1000 | 299 | – | Nc1cc(Cl)ccc1NC(=O)Nc1ccc(S(=O)(=O)Nc2ccc(C(=O)O)cc2)cc1 | – |
| 110 | 742 | 71 | – | Nc1cc(C(F)(F)F)ccc1NC(=O)Nc1ccc(S(=O)(=O)Nc2ccc(C(=O)O)cc2)cc1 | Non-Toxic |
